Test results taken from patent US20050154046A1, “Methods of treating an inflammatory-related disease” (priority 2004, published 2005).

Columns and labels:
[1] = system: DSS-induced acute ulcerative colitis; assay: DSS-induced acute ulcerative colitis in Balb/c mice; assay type: in vivo; settings: 7 days
Text: Materials: […] A suspension of Meisoindigo was freshly prepared in 0.5% sodium methylcellulose and given orally for the animal tests described below. DSS (Dextran Sulfate Sodium salt, molecular weight: 36,000-44,000) was purchased from ICN Biomedicals. Other chemicals used in the following experiments were purchased from Sigma. Pathogen-free female Balb/c mice at 12 weeks of age with body weights from 22 to 25 grams were housed 5 per cage, and given, ad libitum, fresh tap water and commercial rodent pellets. Animal rooms were controlled at 24±2° C. with a relative humidity of 60±5% and a 12 hour light/dark cycle (07:00-19:00 hr). Induction of Acute Ulcerative Colitis DSS-induced colitis in Balb/c Mice: Colitis was induced by DSS in drinking water (MW 36,000-50,000, ICN biochemicals) as described previously (112). Briefly, the mice were randomly divided into 3 groups composed of 10 mice each. In the negative control group (Group 1), mice were given fresh tap water ad libitum and MF pellets, freshly changed twice a week, for 7 days. In the positive control group (DSS group, or Group 2), 5% DSS in tap water was given for 7 days to induce colitis, and the mice were fed with MF pellets. In the DSS-Meisoindigo group (test group or Group 3), mice were given 5% DSS drinking water and given Meisoindigo orally once a day at a dose of 50 mg/kg for 7 consecutive days. Fecal indications of colitis were recorded daily, including body weight and nature of feces (loose and/or bleeding or occult blood). Mice were then sacrificed. Colon tissues were taken, fixed in 10% formalin/PBS, and embedded in paraffin. To minimize physical artifacts, the removed colon was put onto a thick qualitative filter paper without stretching. The colon was then exposed inside out by cutting it longitudinally. The slides were stained with H&E and blindly examined histochemically by 3 technician/pathologists. All data was expressed as a mean±SD.

THP-1 cells = assay: Viability of THP-1 cells by trypan blue staining; assay type: cell-based, human; settings: up to 8 μM
Procedure: Methods: The cells were stimulated with or without […] of lipopolysaccharide (LPS, Sigma), and exposed for 24 hours to different concentrations of Meisoindigo (from 31.25 nM to 16,000 nM). Viability of cells was examined under microscope after trypan blue staining. Protein levels of IL-1β secreted into the culture media by the cells were then measured by ELISA and calculated from its standard curve using an assay Kit from R&D Systems according to instructions provided by the supplier. The method was established and validated by a good standard curve obtained.

[2] = system: chronic myeloid leukemia (CML); settings: cited from earlier work
[3] = system: idiopathic inflammatory bowel disease; assay type: in vivo, human
Procedure: The first diagnosis was performed at North Shore University Hospital Manhasset, Long Island, N.Y. in 1999 by colonoscope. Major symptoms included diarrhea, loose stool and bleeding while their overall condition of health was considered excellent. Clinical-activity index (Table 5) (113) was determined to be between 7 and 8. Their physician prescribed hydrocortisone foam, which they administered for 10 days according to doctor's instructions. […] In early 2002, they went to a well-known and respected Chinese Medical Hospital in Beijing where Flexible Sigmoidoscopy was performed. Again, they were diagnosed as having active inflammatory bowel disease.
At this time, as previous treatments had no effect, their physician prescribed several traditional Chinese medicines. They administered these for several months, yet no improvement of their symptoms resulted. During the period of February 2000 to the summer of 2002, they also tried various other traditional Chinese medicines due to the continued and very troublesome nature of their disease, but nothing was successful. Upon returning to the United States in 2002, they went to the Mount Sinai Medical Center, a nationally recognized American center for the treatment of inflammatory bowel disease. In October 2002, their new physician again performed a colonoscope, together with a histological examination of two biopsy samples (A and B) (FIG. 8, panel A, before the treatment).
These included skin itch, abdominal cramping, pain and bleeding. They then asked their physician for advice and was instructed to use this medication on an intermittently. However, the side effects continued actually worsened each time the medication was used. They then halted all application of this medication.
The patient voluntarily administered Meisoindigo at a recommended dose of 25 mg, once a day for a scheduled three weeks of treatment. […] After nine weeks of remission (three weeks on the medicine, three weeks off of the medicine, and three weeks on the medicine again), the patient again visited their physician and requested a Flexible Sigmoidoscopy to determine if their remission was subjective or objective. The Flexible Sigmoidoscopy was performed on Nov. 4, 2003. After reviewing the results their physician concluded that their inflammation completely arrested.

IL-1β = IL-1β secretion (ELISA) in LPS-stimulated THP-1 cells; assay type: cell-based, human
Procedure: It was prepared in a solution of dimethyl sulfoxide (DMSO), and stored under −20° C. for the experiments in vitro. Human monocytic cell line, THP-1 (90), was purchased from ATCC. The cells were maintained according to the supplier's instructions. Approximately 1×10^5 cells/ml were cultured at 37° C., 5% CO2 for 24 hours in Modified RPMI-1640 Medium (Invitrogen) supplemented with 10% FBS.
Statistical Analysis: All data were expressed as a mean±SD. Statistical significance of any difference between the control (LPS) and experimental groups was determined by the Student's t-test. P values between the 2 groups must be at least smaller than 0.05 to be considered statistically significant.
1) Effects of Meisoindigo and NATURA on the expression/secretion of cytokines IL-1β, IL-6, IL-10: The human monocytic THP-1 cells grown exponentially were stimulated with or without 1 μM of lipopolysaccharide (LPS, Sigma), and exposed for 24 hours to different concentrations of Meisoindigo and NATURA (from 31.25 nM and 62.5 nM), respectively. Viability of cells was examined by trypan blue exception assay.

[4] = 50 mg/kg orally once a day, 5% DSS
[5] = 25 mg once a day, before treatment 0
[6] = 25 mg once a day, before treatment 1
[7] = 25 mg once a day, before treatment 2

CN1C(=O)/C(=C2/C(=O)Nc3ccccc32)c2ccccc21 [Meisoindigo]
reduction of the ulcerations versus positive control group ([1]; 50 mg/kg orally once a day): 55%
animals with occult blood [1, 4]: 40%
other symptoms such as loose stool [1, 4]: less severe than that of the control group
ulcerative damage of the colon (count under microscope) ([1]; 50 mg/kg orally, positive control 6.38±2.20): 2.89±1.46
cell deaths (THP-1 cells): no cell deaths were observed
side effects reported ([2]; 150 mg per day, China): very minor side effects
total dosage needed to achieve the maximal remission of CML [2]: 8696 mg
clinical response ([3]; 25 mg once a day, after the first three doses): complete remission
Patient Score After Treatment: Abdominal tenderness [3, 5]: 0
Patient Score After Treatment: Nocturnal diarrhea [3, 5]: 0
Patient Score After Treatment: Abdominal pain or cramping [3, 6]: 0
Patient Score After Treatment: Fecal incontinence [3, 6]: 0
Patient Score After Treatment: Need for antidiarrhea drugs [3, 6]: 0
Patient Score After Treatment: Diarrhea (No. of daily stools) [3, 7]: 0
Patient Score After Treatment: General well-being [3, 7]: 0
Patient Score After Treatment: Visible blood in stool (% of movements) [3, 7]: 0
Flexible Sigmoidoscopy / pathological examination after treatment ([3]; after nine weeks of remission (three weeks on, three off, three on)): inactive chronic protocolitis suggestive of idiopathic inflammatory bowel disease
total amount of drug needed to obtain a complete cure of the inflammatory bowel disease ([3]; human, in vivo): 525 mg
reduction of the LPS mediated IL-1β secretion (IL-1β; 31.25 nM, 24 h, LPS-stimulated THP-1 cells): over 50%
IL-1β (Inhibition), Percentage of Maximal Response Without Cytotoxicity (IL-1β; LPS-stimulated THP-1 cells, LPS alone 100.00): 48.76 ± 3.68%
effect on IL-1β production (IL-1β; as low as 31.25 nM (31.25 and 62.5 nM in FIG. 6), 24 h): significantly inhibit
further reduction of IL-1β secretion on increasing the concentration (IL-1β; up to 8 μM): did not result in further reduction
